Measurements reported in patent publication US12150927B2, “Use of cannabidiolic acid in the treatment of autism spectrum disorder and associated disorders” (GW Research Limited, priority 2016, dated 2024).

How the values were obtained:
Ube3am-/p+ (AS) mice = assay: Novel object recognition, mouse model of Angelman syndrome; assay type: in vivo; conditions: CBDA 20 mg/kg i.p., age 7-8 weeks, vs AS vehicle
Description: Heterozygous mice with maternal deficiency of Ube3A (Ube3am−/p+) and wild type (Ube3am+/p+) were purchased from The Jackson Laboratory (Jackson code: B6.129S7-Ube3a tm1Alb/J) and maintained in a C57BL/6 background.
Drugs were dissolved in 1:1:18 ethanol:cremophor:0.9% saline, for intraperitoneal (i.p.) administration. Drug treatment was performed daily for 35 days. CBDA was administered at 20 mg/kg.
Novel Object Recognition: The novel object recognition assesses recognition memory in mice. The experiment started with the habituation period, during which mice were allowed to freely explore for 1 hour the apparatus which consists of a rectangular open box (40×30×30 cm width×length×height) made of grey polyvinyl chloride (PVC) illuminated by a dim light. The day after each mouse was allowed to explore two identical objects positioned in the back left and right corners for 5 min (acquisition). A video camera recorded the time spent on exploration of each object. […] The behaviour of mice was analyzed by an observer blind to the treatment. Data are expressed as percentage of recognition index (RI %), which was calculated as the percentage of the time spent exploring the novel object/time spent exploring the novel object+time spent exploring the familiar object×100.

MeCP2 KO mice = assay: Novel Object Recognition (NOR) test, short- and long-term memory, mouse model of Rett syndrome; assay type: in vivo
Description: Furthermore, the efficacy of CBDA in reverting/attenuating the short- and long-term memory deficits present in these mice was evaluated. The Novel Object Recognition (NOR) test was performed before the starting of the treatment Post Natal Day 28 (PND 28), at PND 41 when the first motor symptoms appear and at PND 56 and 66 when the disease is fully manifested.
At PND 28, 41, 56 and 66 the effect of CBDA on short- and long-term memory deficits was investigated through the Novel Object Recognition (NOR) test.
The experiment was performed as previously described (Zamberletti E. et al. 2014 and Kruk-Stomka M. et al. 2014).
The experimental apparatus used for the Novel Object Recognition test was an open-field box (43×43×32 cm) made of Plexiglas, placed in a dimly illuminated room. Animals performed each test individually.
Briefly, each animal was placed in the arena and allowed to explore two identical previously unseen objects for 10 minutes (familiarization phase). After an inter-trial interval of 30 minutes and 24 hours one of the two familiar objects was replaced by a novel, previously unseen object and mice were returned to the arena for the 10-minute test phase.
During the test phase the time spent exploring the familiar object (Ef) and the new object (En) was recorded separately by two observers blind to the groups and the discrimination index was calculated as follows: [(En−Ef)/(En+Ef)]×100.

C=C(C)[C@@H]1CCC(C)=C[C@H]1c1c(O)cc(CCCCC)c(C(=O)O)c1O [CBDA, Cannabidiolic acid]
discrimination index (Ube3am-/p+ (AS) mice): increased the discrimination index
short-term memory in the NOR test (MeCP2 KO mice; MeCP2 KO mice, CBDA 2 and 20 mg/kg i.p., each time point (PND 41, 56, 66), 30 min inter-trial interval, FIG. 10): reverted the cognitive impairment in short-term memory
long-term memory in the NOR test (MeCP2 KO mice; MeCP2 KO mice, both doses of CBDA (2 and 20 mg/kg i.p.), 24 hours inter-trial interval, FIG. 11): counteract the cognitive impairment in long-term memory
short-term recognition memory in the NOR test (MeCP2 KO mice; WT littermates, CBDA 2 and 20 mg/kg i.p., FIG. 10): without affecting recognition memory
long-term recognition memory in the NOR test (MeCP2 KO mice; WT littermates, both doses of CBDA, FIG. 11): without affecting recognition memory
